Test system: SW48 cells
Assay: 5-Aza-dC treatment and RT-PCR: reactivation of silenced genes in SW48 cells
Type: cell-based
Settings: SW48 colon cancer cells, 5 μM 5-Aza-dC for 4 days, subset of candidate genes, versus untreated cells
From the text: FIG. 3: Validation of novel targets for aberrant methylation in colon cancer. A. Primers for PCR were designed for positive clones identified in the microarray analysis as hypermethylated in SW48 cells. DNA methylation was controlled by Single-gene PCR on enriched methylated samples prepared from WI38 primary fibroblasts and SW48 colon cancer cells according to the method described above. IN=input genomic DNA, M=enriched methylated DNA. As a separate control the inventors analyzed samples prepared from matched normal colon (N) and colon tumor (T) from three patients. MLH1 and RASSF1A have previously been described to be aberrantly methylated in SW48 cells and in some colon tumors. The imprinted H19 ICR sequence serves as a positive control for methylation. B. Control of methylation status by methylation-sensitive restriction. Genomic DNA was either digested with the methylation-sensitive HpaII enzyme or undigested and used as a PCR template with primers spanning a HpaII-containing PCR fragments in three randomly selected positive clones (top) and negative clones (bottom). The number of HpaII sites within the PCR amplicon is indicated in parenthesis. Presence of a PCR product after HpaII digest reflects DNA methylation in the sample and in each case confirms the above described enrichment analysis. C. Reactivation of silenced genes in SW48 cells by 5-Aza-dC treatment. […]

Nc1ncn([C@H]2C[C@H](O)[C@@H](CO)O2)c(=O)n1 [5-Aza-dC]
transcription of silenced (methylated) genes by RT-PCR after treatment with the demethylating agent: derepression

— patent US20120288509A1, “ANALYSIS OF METHYLATED NUCLEIC ACID” (priority 2004, published 2012)
